Columns and labels:
C57BL/6 mouse cornea [1] = assay: Corneal epithelium cytokines (ELISA) after stimulatory ODN on abraded mouse cornea; format: in vivo; conditions: stimulatory ODN 1826 20 μg/ml with ODN 2088 20 μg/ml, 5 hours; all three cytokines; FIG. 6
Description: In this experiment, 1 μl of test solution containing 20 μg/ml of the synthetic stimulatory ODN 1826, along with a composition of the present invention containing 20 μg/ml of the inhibitory ODN 2088, or a control composition containing 20 μg/ml of the control ODN 1911, or the medium only, was applied to a 1 mm^2 abraded area of central C57BL/6 mouse cornea that had been marked by sterile trephine (Miltex, Tuttlingen, Germany) and abraded with an Alger brush II (Alger, PagoVista, TX). After 5 hours, the corneal epithelium was separated after 20 minutes in 20 mM EDTA at 37° C. and placed into RPMI 1640 medium. Samples were disrupted by sonication for 88 seconds with 40% duty cycle (Vibracell; Sonics and Material, Danbury, Conn.). Cytokines were measured by ELISA assay (R&D Systems, Minneapolis, Minn.) for the pro-inflammatory cytokines MIP-2, KC, and human interferon-inducible protein 10 (“IP-10”).

[2] = system: mouse peritoneal neutrophils; assay: Cytokine production (ELISA) by activated mouse peritoneal neutrophils; format: cell-based; conditions: 15 hours
Description: In one experiment, mouse peritoneal neutrophils were isolated from C57BL/6 mice that had received intraperitoneal injection of 1% casein solution containing 0.5 mM MgCl2 and 0.99 mM CaCl2 16 hours and 3 hours prior to harvesting in Hank's balanced salt solution (“HBSS”) lavage. Collected cells were centrifuged (2000 rpm, 10 min) and washed twice in HBSS, prior to separation of granulocytes by Percol gradient at 31,500 rpm for 20 min. Cells were washed twice and resuspended in Dubelco's modified eagle's medium (“DMEM”) containing 10% fetal calf serum (Invitrogen, Basel Switzerland). Purity of 98% neutrophils was verified by Diff-Quik stain (VWR, Bridgeport, N.J.). Neutrophils (1×10^5/well) were pre-incubated with 100 ng/ml GM-CSF at 37° C. for 1 hour prior to exposure to compositions of the present invention comprising 0.08-10 μg/ml of inhibitory ODN 2088 (InvivoGen, San Diego, Calif.; sequence disclosed above) or a control composition containing 20 μg/ml of the control ODN 1911 (Operon Qiagen, Valencia, Calif.; having a sequence of […]), or the medium only, for 30 minutes prior to activation with 20 μg/ml of stimulatory ODN 1826 (Operon Qiagen, Valencia, Calif.; having a sequence of […]); 20 μg/ml of endotoxin-free DNA from E. coli K12 (InvivoGen, San Diego, Calif.); killed Staphylococcus aureus strain E2061740 (3×10^5 cfu/ml); 100 ng/ml of Pam3Cys (synthetic lipopeptide (S)-(2,3-bis(palmitoyloxy)-(2RS)-propyl)-N-palmitoyl-(R)-Cys-(S)-Ser-(S)-Lys4-OH, EMC Microcollections, Tubingen, Germany); or 200 ng/ml of LPS (ultra pure lipopolysaccharide from E. coli 0111:B4 strain, InvivoGen, San Diego, Calif.). After 15 hours at 37° C., supernates were collected for ELISA assay (R&D Systems, Minneapolis, Minn.) for pro-inflammatory cytokines macrophage inflammatory protein-2 (“MIP-2”), keratinocyte-derived chemokines (“KC”), IL-6, and TNF-α. […] The production of these pro-inflammatory cytokines was not affected when neutrophils activated by Pam3Cys or LPS were treated with a composition comprising the inhibitory ODN 2088. This not surprising in view of the fact that the inhibitory ODN 2088 inhibits the activation of TLR9 while LPS and Pam3Cys activate TLR4 and TLR2, respectively. Other inhibitors of TLR2 and TLR4 activation should be effective in suppressing corneal infiltrate induced by […], respectively.

TLR9 = target: T1, TLR9 (Homo sapiens, UniProt Q9NR96); conditions: Gursel et al. 2003; Stunz et al. 2002; cited from earlier work
T1 sequence (Q9NR96 26-1032): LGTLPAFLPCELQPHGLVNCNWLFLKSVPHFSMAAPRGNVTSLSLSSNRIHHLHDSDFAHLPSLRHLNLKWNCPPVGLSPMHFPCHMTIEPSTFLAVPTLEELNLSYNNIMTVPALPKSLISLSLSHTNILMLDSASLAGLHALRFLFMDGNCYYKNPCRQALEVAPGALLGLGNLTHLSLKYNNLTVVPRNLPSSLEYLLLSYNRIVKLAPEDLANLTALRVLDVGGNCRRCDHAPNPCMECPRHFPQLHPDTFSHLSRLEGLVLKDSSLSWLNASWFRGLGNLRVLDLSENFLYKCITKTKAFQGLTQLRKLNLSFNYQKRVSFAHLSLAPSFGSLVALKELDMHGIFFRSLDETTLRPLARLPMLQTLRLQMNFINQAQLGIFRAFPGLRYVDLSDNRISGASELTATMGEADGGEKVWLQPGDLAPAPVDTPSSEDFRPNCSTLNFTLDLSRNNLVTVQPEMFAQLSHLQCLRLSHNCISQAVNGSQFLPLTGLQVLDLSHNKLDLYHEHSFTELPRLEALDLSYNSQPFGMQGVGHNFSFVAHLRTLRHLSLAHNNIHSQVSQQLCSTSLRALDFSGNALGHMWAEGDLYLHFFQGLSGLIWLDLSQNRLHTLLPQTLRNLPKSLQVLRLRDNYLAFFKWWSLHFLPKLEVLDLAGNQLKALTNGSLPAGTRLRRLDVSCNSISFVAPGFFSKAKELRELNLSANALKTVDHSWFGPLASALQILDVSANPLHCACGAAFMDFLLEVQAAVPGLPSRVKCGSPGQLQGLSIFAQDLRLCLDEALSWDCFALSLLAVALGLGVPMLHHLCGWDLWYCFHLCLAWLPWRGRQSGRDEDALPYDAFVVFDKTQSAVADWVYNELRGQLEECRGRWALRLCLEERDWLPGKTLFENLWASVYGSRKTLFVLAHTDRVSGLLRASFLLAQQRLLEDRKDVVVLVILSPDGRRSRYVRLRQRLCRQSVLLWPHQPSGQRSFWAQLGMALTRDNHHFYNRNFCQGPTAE

C57BL/6 mouse cornea [3] = assay: Mouse keratitis: neutrophil infiltrate in abraded cornea; format: in vivo; conditions: topical on abraded cornea, 24 hours, FIG. 5
Description: In this experiment, 1 μl of test solution containing 20 μg/ml of the synthetic stimulatory ODN 1826, 10 μg/ml of endotoxin-free DNA from E. coli K12, 20 μg/ml of Pam3Cys, or 20 μg/ml LPS, along with a composition of the present invention containing the inhibitory ODN 2088, the control composition containing 20 μg/ml of ODN 1911, or medium only, was applied to a 1 mm^2 abraded area of central C57BL/6 mouse cornea that had been marked by sterile trephine (Miltex, Tuttlingen, Germany) and abraded with an Alger brush II (Alger, PagoVista, Texas). After 24 hours, the corneal infiltrate was determined as the number of neutrophils per corneal section. […] Other inhibitors of TLR2 and TLR4 activation should be effective in suppressing corneal infiltrate induced by Pam3Cys and LPS, respectively.

With “TCCTGGCGGGGAAGT (chemistry not given here) [ODN 2088]” the “corneal cytokine response (MIP-2, KC, IP-10)” value (C57BL/6 mouse cornea [1]) was “reduced cytokine response”, the “pro-inflammatory cytokine production by neutrophils (MIP-2, KC, IL-6, TNF-α)” value (shortened to “pro-inflammatory cytokine production”) ([2]; activation with 100 ng/ml Pam3Cys) was “not affected” and the “pro-inflammatory cytokine production” value ([2]; activation with 200 ng/ml LPS) was “not affected”. For the same sequence, the “pro-inflammatory cytokine production” value ([2]; activation with 20 μg/ml endotoxin-free DNA from E. coli K12, ODN 2088 0.08-10 μg/ml, dose dependent, FIGS. 1-4) was “inhibited pro-inflammatory cytokine production”, the “pro-inflammatory cytokine production” value ([2]; activation with 20 μg/ml stimulatory ODN 1826, ODN 2088 0.08-10 μg/ml, dose dependent, FIGS. 1-4) was “inhibited pro-inflammatory cytokine production” and the “pro-inflammatory cytokine production” value ([2]; activation with killed Staphylococcus aureus (3×10^5 cfu/ml)) was “nondetectable levels”. The “colocalization of CpG DNA with TLR9 within endosomal vesicles” value (TLR9) was “block the colocalization”, the “corneal infiltrate, number of neutrophils per corneal section” value (“corneal infiltrate … per corneal section” below) (C57BL/6 mouse cornea [3]; LPS 20 μg/ml) was “not effective in suppressing corneal infiltrates” and the “corneal infiltrate … per corneal section” value (C57BL/6 mouse cornea [3]; Pam3Cys 20 μg/ml) was “not effective in suppressing corneal infiltrates”. For the same sequence, the “corneal infiltrate … per corneal section” value (C57BL/6 mouse cornea [3]; bacterial DNA (E. coli K12) 10 μg/ml) was “reduced the number of infiltrating neutrophils” and the “corneal infiltrate … per corneal section” value (C57BL/6 mouse cornea [3]; stimulatory ODN 1826 20 μg/ml) was “reduced the number of infiltrating neutrophils”.

From patent US20090081194A1, “COMPOSITIONS AND METHODS FOR REDUCING RISK OF DEVELOPMENT, OR SEVERITY, OF INAPPROPRIATE IMMUNE RESPONSE IN EYES” (priority 2007, published 2009)
